ChEMBL document CHEMBL1123701, “Synthesis and quantitative structure-activity relationship analysis of N-triiodoallyl- and N-iodopropargylazoles. New antifungal agents” (1987)
Converted amounts (≈) assume the structure as drawn.

Columns and labels:
Trichophyton benhamiae = test: Antifungal activity towards Trichophyton mentagrophytes 530324 strain; type: functional, Arthroderma benhamiae
Candida albicans = test: Antifungal activity against Candida albicans C-A-24 strain; type: functional
Cryptococcus neoformans = test: Antifungal activity against Cryptococcus neoformans Cr-1 strain; type: functional
Aspergillus fumigatus = test: Antifungal activity against Aspergillus fumigatus Saito strain; type: functional
[1] = tested on: Trichophyton interdigitale; test: Antifungal activity towards Trichophyton interdigitale; type: functional

SMILES | MIC (Trichophyton benhamiae) [µg/mL] | MIC (Candida albicans) [µg/mL] | MIC (Cryptococcus neoformans) [µg/mL] | MIC (Aspergillus fumigatus) [µg/mL] | MIC [1] [µg/mL]
COc1ccc(-c2nnn(CC(I)=C(I)I)n2)cc1 | 25 (≈ 42.1 µM) | > 100 | > 100 | 25 (≈ 42.1 µM) | > 100
N#Cc1ccc(-c2nnn(CC#CI)n2)cc1 | 3.13 (≈ 9.34 µM) | 50 (≈ 149 µM) | 50 (≈ 149 µM) | 6.25 (≈ 18.7 µM) | 1.56 (≈ 4.66 µM)
FC(F)(F)c1cccc(-c2nnn(CC#CI)n2)c1 | 0.1 (≈ 0.264 µM) | 3.13 (≈ 8.28 µM) | 1.56 (≈ 4.13 µM) | 3.13 (≈ 8.28 µM) | 0.1 (≈ 0.264 µM)
CCCCCCCc1nnnn1CC#CI | 0.2 (≈ 0.602 µM) | 6.25 (≈ 18.8 µM) | 1.56 (≈ 4.7 µM) | 0.78 (≈ 2.35 µM) | 0.1 (≈ 0.301 µM)
Clc1cccc(-c2nnn(CC#CI)n2)c1 | 0.1 (≈ 0.29 µM) | 0.78 (≈ 2.26 µM) | 0.39 (≈ 1.13 µM) | 0.78 (≈ 2.26 µM) | 0.1 (≈ 0.29 µM)
IC#CCn1nccn1 | 0.39 (≈ 1.67 µM) | 1.56 (≈ 6.69 µM) | 1.56 (≈ 6.69 µM) | 0.78 (≈ 3.35 µM) | 0.78 (≈ 3.35 µM)
CCCCCc1nnn(CC#CI)n1 | 0.1 (≈ 0.329 µM) | – | – | 0.78 (≈ 2.56 µM) | 0.1 (≈ 0.329 µM)
O=[N+]([O-])c1cccn1CC#CI | 0.1 (≈ 0.362 µM) | 0.78 (≈ 2.83 µM) | 0.39 (≈ 1.41 µM) | 0.39 (≈ 1.41 µM) | 0.39 (≈ 1.41 µM)
O=[N+]([O-])c1c(Cl)c(Cl)n(CC#CI)c1Cc1cc(Cl)cc(Cl)c1O | 3.13 (≈ 6.02 µM) | 25 (≈ 48.1 µM) | 3.13 (≈ 6.02 µM) | 12.5 (≈ 24 µM) | 3.13 (≈ 6.02 µM)
IC#CCn1nnc(C2CC2)n1 | 0.39 (≈ 1.42 µM) | 1.56 (≈ 5.69 µM) | 1.56 (≈ 5.69 µM) | 0.39 (≈ 1.42 µM) | 0.78 (≈ 2.85 µM)
CCCc1nnnn1CC(I)=C(I)I | 0.1 (≈ 0.189 µM) | – | – | – | 0.1 (≈ 0.189 µM)
Cc1cc(C)n(CC#CI)n1 | 0.78 (≈ 3 µM) | 6.25 (≈ 24 µM) | 3.13 (≈ 12 µM) | 0.78 (≈ 3 µM) | 0.78 (≈ 3 µM)
Cc1ccnn1CC#CI | 0.39 (≈ 1.59 µM) | 6.25 (≈ 25.4 µM) | 1.56 (≈ 6.34 µM) | 0.78 (≈ 3.17 µM) | 0.78 (≈ 3.17 µM)
O=[N+]([O-])c1c(Cl)c(Cl)n(CC(I)=C(I)I)c1Cc1cc(Cl)cc(Cl)c1O | 25 (≈ 32.3 µM) | > 25 | > 25 | > 25 | 25 (≈ 32.3 µM)
Cc1nnnn1CC#CI | 3.13 (≈ 12.6 µM) | 6.25 (≈ 25.2 µM) | 3.13 (≈ 12.6 µM) | 6.25 (≈ 25.2 µM) | 3.13 (≈ 12.6 µM)
CC(=O)c1cccn1CC(I)=C(I)I | 1.56 (≈ 2.96 µM) | 12.5 (≈ 23.7 µM) | > 25 | 12.5 (≈ 23.7 µM) | 0.39 (≈ 0.74 µM)
CCCCCc1nnn(CC(I)=C(I)I)n1 | 0.1 (≈ 0.179 µM) | – | – | – | 0.2 (≈ 0.358 µM)
CCc1nnnn1CC(I)=C(I)I | 1.56 (≈ 3.02 µM) | > 25 | > 25 | 25 (≈ 48.5 µM) | 3.13 (≈ 6.07 µM)

SMILES | MIC (Trichophyton benhamiae) [µg/mL] | MIC (Candida albicans) [µg/mL] | MIC (Cryptococcus neoformans) [µg/mL] | MIC (Aspergillus fumigatus) [µg/mL] | MIC [1] [µg/mL]
CCOC(=O)c1cn(CC(I)=C(I)I)c(Cl)c1Cl | 3.13 (≈ 5 µM) | 25 (≈ 39.9 µM) | 25 (≈ 39.9 µM) | 25 (≈ 39.9 µM) | 3.13 (≈ 5 µM)
Cc1ccc(-c2nnn(CC(I)=C(I)I)n2)cc1 | > 100 | > 100 | > 100 | > 100 | > 100
CCCCCCCc1nnn(CC(I)=C(I)I)n1 | 0.78 (≈ 1.33 µM) | 12.5 (≈ 21.3 µM) | – | – | –
Clc1cc(Cl)cc(-c2nnn(CC#CI)n2)c1 | 0.1 (≈ 0.264 µM) | 1.56 (≈ 4.12 µM) | 0.39 (≈ 1.03 µM) | 1.56 (≈ 4.12 µM) | 0.1 (≈ 0.264 µM)
Cc1cncn1CC(I)=C(I)I | 1.56 (≈ 3.12 µM) | 12.5 (≈ 25 µM) | 12.5 (≈ 25 µM) | 3.13 (≈ 6.26 µM) | 1.56 (≈ 3.12 µM)
CC(C)(C)c1nnnn1CC#CI | 3.13 (≈ 10.8 µM) | 12.5 (≈ 43.1 µM) | 25 (≈ 86.2 µM) | 6.25 (≈ 21.5 µM) | 0.78 (≈ 2.69 µM)
CCc1nnn(CC(I)=C(I)I)n1 | 0.2 (≈ 0.388 µM) | 0.78 (≈ 1.51 µM) | 0.78 (≈ 1.51 µM) | 0.2 (≈ 0.388 µM) | 0.1 (≈ 0.194 µM)
O=[N+]([O-])c1ncnn1CC(I)=C(I)I | 0.39 (≈ 0.733 µM) | 12.5 (≈ 23.5 µM) | 0.78 (≈ 1.47 µM) | 0.39 (≈ 0.733 µM) | 0.2 (≈ 0.376 µM)
CC(C)(C)c1nnn(CC(I)=C(I)I)n1 | 0.39 (≈ 0.717 µM) | > 25 | > 25 | – | –
COc1ccc(-c2nnn(CC#CI)n2)cc1 | 0.1 (≈ 0.294 µM) | – | 25 (≈ 73.5 µM) | – | 0.1 (≈ 0.294 µM)
IC(I)=C(I)Cn1nnnc1Cc1ccccc1 | 0.1 (≈ 0.173 µM) | > 25 | > 25 | 25 (≈ 43.3 µM) | 0.1 (≈ 0.173 µM)
IC#CCn1nnc(-c2ccc(C3N=NN=N3)cc2)n1 | 1.56 (≈ 4.13 µM) | > 100 | > 100 | > 100 | 1.56 (≈ 4.13 µM)
CCCc1nnn(CC#CI)n1 | 0.1 (≈ 0.362 µM) | – | – | 0.1 (≈ 0.362 µM) | 0.1 (≈ 0.362 µM)
Clc1ccc(-c2nnn(CC#CI)n2)cc1 | 0.1 (≈ 0.29 µM) | – | – | – | 0.2 (≈ 0.58 µM)
O=[N+]([O-])c1ccn(CC#CI)c1 | 0.2 (≈ 0.725 µM) | 0.78 (≈ 2.83 µM) | 0.1 (≈ 0.362 µM) | 0.1 (≈ 0.362 µM) | 0.78 (≈ 2.83 µM)
Fc1ccc(-c2nnn(CC#CI)n2)cc1 | 0.1 (≈ 0.305 µM) | 0.78 (≈ 2.38 µM) | 0.78 (≈ 2.38 µM) | 0.2 (≈ 0.61 µM) | 0.1 (≈ 0.305 µM)
CC(C)c1nnnn1CC(I)=C(I)I | 3.13 (≈ 5.91 µM) | – | – | – | –
CCCc1nnn(CC(I)=C(I)I)n1 | 0.1 (≈ 0.189 µM) | – | – | – | 0.1 (≈ 0.189 µM)
